Our source for the IC50 values is patent US10633419B2, “Immunomodulators” (BRISTOL-MYERS SQUIBB COMPANY, priority 2014, dated 2020).

Starred links: 1 amine or outer side, 2 acyl side, 3 side chain; linkers in the order of their positions; H or OH if unused. Positions of bridges follow the written chain, without caps; N, C: chain ends. Non-standard residues stand in square brackets, D forms with d. Residues, ends and D or L forms follow the SMILES beside them. Groups on a side chain read outwards from the residue. *: point of attachment. δOrn(Nα-Octadecanedioyl) = O=C(O)CCCCCCCCCCCCCCCCC(=O)N[C@@H](CCCN*)C(=O)O; Trp(1-CH2COOH) = N[C@@H](Cc1cn(CC(=O)O)c2ccccc12)C(=O)O; X9 = O=C(O)CCCCCCCCCCCCCCCCC(=O)N[C@@H](CCN*)C(=O)O; C18 diacid = O=C(O)CCCCCCCCCCCCCCCCC(=O)*; Phe(4-F) = N[C@@H](Cc1ccc(F)cc1)C(=O)O; γGlu = O=C(O)[C@H](CCC(=O)[*:2])N[*:1]; Hyp = O=C(O)[C@@H]1C[C@@H](O)CN1; NMeNle = CCCC[C@H](NC)C(=O)O; Pip = O=C(O)[C@@H]1CCCCN1; Dab = NCC[C@H](N)C(=O)O; Dap = NC[C@H](N)C(=O)O

For the first assay, the target named is T1, PD-L1 (Homo sapiens, UniProt Q9NZQ7).
T1 construct: hPDL1(19-239)-TVMV-His; made in house; host or cells: HEK293T
T1 sequence (Q9NZQ7 with tags, fused parts or gaps): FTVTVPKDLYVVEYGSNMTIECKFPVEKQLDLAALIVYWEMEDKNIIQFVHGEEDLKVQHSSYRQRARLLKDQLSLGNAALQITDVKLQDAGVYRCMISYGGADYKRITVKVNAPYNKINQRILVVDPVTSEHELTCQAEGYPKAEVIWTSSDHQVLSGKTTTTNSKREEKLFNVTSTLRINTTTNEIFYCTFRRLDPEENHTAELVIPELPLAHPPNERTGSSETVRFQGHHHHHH
As to the kind of experiment: PD-1/PD-L1 Homogenous Time-Resolved Fluorescence (HTRF) binding assay (PD-1-Ig/PD-L1-His). The note with it: inhibition of PD-1-Ig binding to PD-L1-TVMV-His; value given as number; read-out: HTRF IC50. The gist of the method:
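HTRF competition in dPBS with 0.1% BSA and 0.05% Tween-20: 20 nM PD-1-Ig added after 15 min compound pre-incubation with 10 nM PD-L1-His, then another 15 min. Signal (665/620 nm) after 30 min with APC anti-His (20 nM) and Eu anti-Ig (1 nM).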
On the technique in general: TR-FRET usually uses a lanthanide donor and a delayed reading to cut background.
For the compound `CCCC[C@H]1C(=O)N(C)[C@@H](CCCC)C(=O)N[C@@H](CC(C)C)C(=O)N[C@H](C(=O)NCC(=O)N[C@@H](CCNC(=O)CC[C@H](NC(=O)CCCCCCCCCCCCCCCCC(=O)O)C(=O)O)C(=O)O)CSCC(=O)N[C@@H](Cc2ccc(F)cc2)C(=O)N2CCCC[C@H]2C(=O)N[C@@H](CC(=O)O)C(=O)N2CCC[C@H]2C(=O)N[C@@H](CN)C(=O)N[C@@H](CC(C)C)C(=O)N2C[C@H](O)C[C@H]2C(=O)N[C@@H](Cc2c[nH]c3ccccc23)C(=O)N[C@@H](CCN)C(=O)N[C@@H](Cc2cn(CC(=O)O)c3ccccc23)C(=O)N1C` [Example 13150] ({CH2CO}-[Phe(4-F)][Pip]DP[Dap]L[Hyp]W[Dab][Trp(1-CH2COOH)][NMeNle][NMeNle]LCG[Dab]([γGlu-C18 diacid])-OH; thioether N-14), the IC50 (in general, the concentration at which inhibition is half-maximal) was 20.9 nM.

Still in this assay, the particulars now being: inhibition of PD-1-Ig binding to PD-L1-TVMV-His; value given as range class; read-out: HTRF IC50.
For `CCCC[C@H]1C(=O)N(C)[C@@H](CCCC)C(=O)N[C@@H](CC(C)C)C(=O)N[C@H](C(=O)NCC(=O)N[C@@H](Cc2cn(CC[C@H](NC(=O)CCCCCCCCCCCCCCCCC(=O)O)C(=O)O)nn2)C(=O)O)CSCC(=O)N[C@@H](Cc2ccc(O)cc2)C(=O)N2CCCC[C@H]2C(=O)N[C@@H](CC(N)=O)C(=O)N2CCC[C@H]2C(=O)N[C@@H](CNC)C(=O)N[C@@H](CC(C)C)C(=O)N2C[C@H](O)C[C@H]2C(=O)N[C@@H](Cc2c[nH]c3ccccc23)C(=O)N[C@@H](CCN)C(=O)N[C@@H](Cc2cn(CC(=O)O)c3ccccc23)C(=O)N1C` [Example 13133], the IC50 was 0.3 to 9.9 nM. Turning to `CCCC[C@H]1C(=O)N(C)[C@@H](CCCC)C(=O)N[C@@H](CC(C)C)C(=O)N[C@H](C(=O)NCC(=O)N[C@@H](CC(=O)NCCC[C@H](NC(=O)CCCCCCCCCCCCCCCCC(=O)O)C(=O)O)C(=O)O)CSCC(=O)N[C@@H](Cc2ccc(O)cc2)C(=O)N2CCCC[C@H]2C(=O)N[C@@H](CC(N)=O)C(=O)N2CCC[C@H]2C(=O)N[C@@H](CN)C(=O)N[C@@H](CC(C)C)C(=O)N2C[C@H](O)C[C@H]2C(=O)N[C@@H](Cc2c[nH]c3ccccc23)C(=O)N[C@@H](CCN)C(=O)N[C@@H](Cc2cn(CC(=O)O)c3ccccc23)C(=O)N1C` [Example 13141] ({CH2CO}-Y[Pip]NP[Dap]L[Hyp]W[Dab][Trp(1-CH2COOH)][NMeNle][NMeNle]LCGD(δOrn(Nα-Octadecanedioyl))-OH; thioether N-14), the half-inhibitory concentration (IC50) fell in the range of 100 to 1600 nM. The same measure, in the same setting: as for `CCCC[C@H]1C(=O)N(C)[C@@H](CCCC)C(=O)N[C@@H](CC(C)C)C(=O)N[C@H](C(=O)NCC(=O)N[C@@H](CCC(=O)NCCC[C@H](NC(=O)CCCCCCCCCCCCCCCCC(=O)O)C(=O)O)C(=O)O)CSCC(=O)N[C@@H](Cc2ccc(O)cc2)C(=O)N2CCCC[C@H]2C(=O)N[C@@H](CC(N)=O)C(=O)N2CCC[C@H]2C(=O)N[C@@H](CN)C(=O)N[C@@H](CC(C)C)C(=O)N2C[C@H](O)C[C@H]2C(=O)N[C@@H](Cc2c[nH]c3ccccc23)C(=O)N[C@@H](CCN)C(=O)N[C@@H](Cc2cn(CC(=O)O)c3ccccc23)C(=O)N1C` [Example 13142] ({CH2CO}-Y[Pip]NP[Dap]L[Hyp]W[Dab][Trp(1-CH2COOH)][NMeNle][NMeNle]LCGE(δOrn(Nα-Octadecanedioyl))-OH; thioether N-14), the figure is 100 to 1600 nM; as for `CCCC[C@H]1C(=O)N(C)[C@@H](CCCC)C(=O)N[C@@H](CC(C)C)C(=O)N[C@H](C(=O)NCC(=O)N[C@@H](CCC(=O)NCC[C@H](NC(=O)CCCCCCCCCCCCCCCCC(=O)O)C(=O)O)C(=O)O)CSCC(=O)N[C@@H](Cc2ccc(O)cc2)C(=O)N2CCCC[C@H]2C(=O)N[C@@H](CC(N)=O)C(=O)N2CCC[C@H]2C(=O)N[C@@H](CN)C(=O)N[C@@H](CC(C)C)C(=O)N2C[C@H](O)C[C@H]2C(=O)N[C@@H](Cc2c[nH]c3ccccc23)C(=O)N[C@@H](CCN)C(=O)N[C@@H](Cc2cn(CC(=O)O)c3ccccc23)C(=O)N1C` [Example 13143] ({CH2CO}-Y[Pip]NP[Dap]L[Hyp]W[Dab][Trp(1-CH2COOH)][NMeNle][NMeNle]LCGE(X9)-OH; thioether N-14), 100 to 1600 nM; as for `CCCC[C@H]1C(=O)N(C)[C@@H](CCCC)C(=O)N[C@@H](CC(C)C)C(=O)N[C@H](C(=O)NCC(=O)N[C@@H](CC(=O)NCC[C@H](NC(=O)CCCCCCCCCCCCCCCCC(=O)O)C(=O)O)C(=O)O)CSCC(=O)N[C@@H](Cc2ccc(O)cc2)C(=O)N2CCCC[C@H]2C(=O)N[C@@H](CC(N)=O)C(=O)N2CCC[C@H]2C(=O)N[C@@H](CN)C(=O)N[C@@H](CC(C)C)C(=O)N2C[C@H](O)C[C@H]2C(=O)N[C@@H](Cc2c[nH]c3ccccc23)C(=O)N[C@@H](CCN)C(=O)N[C@@H](Cc2cn(CC(=O)O)c3ccccc23)C(=O)N1C` [Example 13144] ({CH2CO}-Y[Pip]NP[Dap]L[Hyp]W[Dab][Trp(1-CH2COOH)][NMeNle][NMeNle]LCGD(X9)-OH; thioether N-14), 10 to 99 nM. As for `CCCC[C@H]1C(=O)N(C)[C@@H](CCCC)C(=O)N[C@@H](CC(C)C)C(=O)N[C@H](C(=O)NCC(=O)N[C@@H](CC(=O)NCCC[C@H](NC(=O)CCCCCCCCCCCCCCCCC(=O)O)C(=O)O)C(=O)O)CSCC(=O)N[C@@H](Cc2ccc(F)cc2)C(=O)N2CCCC[C@H]2C(=O)N[C@@H](CC(=O)O)C(=O)N2CCC[C@H]2C(=O)N[C@@H](CN)C(=O)N[C@@H](CC(C)C)C(=O)N2C[C@H](O)C[C@H]2C(=O)N[C@@H](Cc2c[nH]c3ccccc23)C(=O)N[C@@H](CCN)C(=O)N[C@@H](Cc2cn(CC(=O)O)c3ccccc23)C(=O)N1C` [Example 13145] ({CH2CO}-[Phe(4-F)][Pip]DP[Dap]L[Hyp]W[Dab][Trp(1-CH2COOH)][NMeNle][NMeNle]LCGD(δOrn(Nα-Octadecanedioyl))-OH; thioether N-14), the IC50 was 10 to 99 nM. Same read-out and setting: with `CCCC[C@H]1C(=O)N(C)[C@@H](CCCC)C(=O)N[C@@H](CC(C)C)C(=O)N[C@H](C(=O)NCC(=O)N[C@@H](CCC(=O)NCCC[C@H](NC(=O)CCCCCCCCCCCCCCCCC(=O)O)C(=O)O)C(=O)O)CSCC(=O)N[C@@H](Cc2ccc(F)cc2)C(=O)N2CCCC[C@H]2C(=O)N[C@@H](CC(=O)O)C(=O)N2CCC[C@H]2C(=O)N[C@@H](CN)C(=O)N[C@@H](CC(C)C)C(=O)N2C[C@H](O)C[C@H]2C(=O)N[C@@H](Cc2c[nH]c3ccccc23)C(=O)N[C@@H](CCN)C(=O)N[C@@H](Cc2cn(CC(=O)O)c3ccccc23)C(=O)N1C` [Example 13146] ({CH2CO}-[Phe(4-F)][Pip]DP[Dap]L[Hyp]W[Dab][Trp(1-CH2COOH)][NMeNle][NMeNle]LCGE(δOrn(Nα-Octadecanedioyl))-OH; thioether N-14) the figure was 10 to 99 nM. Still for that read-out and setting: as for `CCCC[C@H]1C(=O)N(C)[C@@H](CCCC)C(=O)N[C@@H](CC(C)C)C(=O)N[C@H](C(=O)NCC(=O)N[C@@H](CC(=O)NCC[C@H](NC(=O)CCCCCCCCCCCCCCCCC(=O)O)C(=O)O)C(=O)O)CSCC(=O)N[C@@H](Cc2ccc(F)cc2)C(=O)N2CCCC[C@H]2C(=O)N[C@@H](CC(=O)O)C(=O)N2CCC[C@H]2C(=O)N[C@@H](CN)C(=O)N[C@@H](CC(C)C)C(=O)N2C[C@H](O)C[C@H]2C(=O)N[C@@H](Cc2c[nH]c3ccccc23)C(=O)N[C@@H](CCN)C(=O)N[C@@H](Cc2cn(CC(=O)O)c3ccccc23)C(=O)N1C` [Example 13147] ({CH2CO}-[Phe(4-F)][Pip]DP[Dap]L[Hyp]W[Dab][Trp(1-CH2COOH)][NMeNle][NMeNle]LCGD(X9)-OH; thioether N-14), the figure is 100 to 1600 nM; as for `CCCC[C@H]1C(=O)N(C)[C@@H](CCCC)C(=O)N[C@@H](CC(C)C)C(=O)N[C@H](C(=O)NCC(=O)N[C@@H](CCC(=O)NCC[C@H](NC(=O)CCCCCCCCCCCCCCCCC(=O)O)C(=O)O)C(=O)O)CSCC(=O)N[C@@H](Cc2ccc(F)cc2)C(=O)N2CCCC[C@H]2C(=O)N[C@@H](CC(=O)O)C(=O)N2CCC[C@H]2C(=O)N[C@@H](CN)C(=O)N[C@@H](CC(C)C)C(=O)N2C[C@H](O)C[C@H]2C(=O)N[C@@H](Cc2c[nH]c3ccccc23)C(=O)N[C@@H](CCN)C(=O)N[C@@H](Cc2cn(CC(=O)O)c3ccccc23)C(=O)N1C` [Example 13148] ({CH2CO}-[Phe(4-F)][Pip]DP[Dap]L[Hyp]W[Dab][Trp(1-CH2COOH)][NMeNle][NMeNle]LCGE(X9)-OH; thioether N-14), 10 to 99 nM. Regarding `CCCC[C@H]1C(=O)N(C)[C@@H](CCCC)C(=O)N[C@@H](CC(C)C)C(=O)N[C@H](C(=O)NCC(=O)N[C@@H](CCNC(=O)CC[C@H](NC(=O)CCCCCCCCCCCCCCCCC(=O)O)C(=O)O)C(=O)O)CSCC(=O)N[C@@H](Cc2ccc(O)cc2)C(=O)N2CCCC[C@H]2C(=O)N[C@@H](CC(N)=O)C(=O)N2CCC[C@H]2C(=O)N[C@@H](CN)C(=O)N[C@@H](CC(C)C)C(=O)N2C[C@H](O)C[C@H]2C(=O)N[C@@H](Cc2c[nH]c3ccccc23)C(=O)N[C@@H](CCN)C(=O)N[C@@H](Cc2cn(CC(=O)O)c3ccccc23)C(=O)N1C` [Example 13149] ({CH2CO}-Y[Pip]NP[Dap]L[Hyp]W[Dab][Trp(1-CH2COOH)][NMeNle][NMeNle]LCG[Dab]([γGlu-C18 diacid])-OH; thioether N-14), the IC50 lay in the range of 10 to 99 nM. `CCCC[C@H]1C(=O)N(C)[C@@H](CCCC)C(=O)N[C@@H](CC(C)C)C(=O)N[C@H](C(=O)NCC(=O)N[C@@H](CCNC(=O)CC[C@H](NC(=O)CCCCCCCCCCCCCCCCC(=O)O)C(=O)O)C(=O)O)CSCC(=O)N[C@@H](Cc2ccc(OC)cc2)C(=O)N2CCCC[C@H]2C(=O)N[C@@H](CC(N)=O)C(=O)N2CCC[C@H]2C(=O)N[C@@H](Cc2c[nH]cn2)C(=O)N[C@@H](CC(C)C)C(=O)N2C[C@H](O)C[C@H]2C(=O)N[C@@H](Cc2c[nH]c3ccccc23)C(=O)N[C@@H](CCN)C(=O)N[C@@H](Cc2cn(CC(=O)O)c3ccccc23)C(=O)N1C` [Example 13151] ({CH2CO}-Y(Me)[Pip]NPHL[Hyp]W[Dab][Trp(1-CH2COOH)][NMeNle][NMeNle]LCG[Dab]([γGlu-C18 diacid])-OH; thioether N-14): the IC50 is 10 to 99 nM.
